From patent US7211576B2, “Diaminothiazoles” (Hoffmann-La Roche Inc., priority 2004, dated 2007)

Columns and labels:
[1] = system: HCT116, a colorectal carcinoma cell line; test: Tetrazolium dye (MTT) proliferation assay; assay type: cell-based; details: Homo sapiens, HCT-116; HCT116 cells, inhibition of cell proliferation
How it was run: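 Cells in McCoy's 5A with 10% FCS, seeded for log growth, dosed next day in duplicate (0.3% DMSO final) and incubated to time points set by growth curves at 37° C. MTT at 1 mg/ml for 2.5–3 h, formazan in ethanol, A570 minus 650 nm reference. IC50 by linear regression of log concentration versus % inhibition.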

[2] = molecular target: human cyclin D1-CDK4 (Homo sapiens, UniProt P11802); test: FlashPlate kinase assay, cyclin D1-CDK4; assay type: biochemical; details: Rb protein substrate, 1 μM ATP, 33P-ATP, 30 minutes room temperature; read-out: CDK4 IC50
Sequence of human cyclin D1-CDK4 (P11802 whole entry): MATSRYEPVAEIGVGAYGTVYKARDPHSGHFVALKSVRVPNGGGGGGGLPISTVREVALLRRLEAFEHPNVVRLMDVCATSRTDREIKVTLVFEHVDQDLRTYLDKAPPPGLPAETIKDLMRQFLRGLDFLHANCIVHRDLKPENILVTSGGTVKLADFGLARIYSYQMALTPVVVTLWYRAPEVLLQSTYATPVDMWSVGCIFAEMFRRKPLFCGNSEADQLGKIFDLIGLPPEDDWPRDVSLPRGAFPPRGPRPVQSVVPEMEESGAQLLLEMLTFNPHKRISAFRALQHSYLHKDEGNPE
Sequence of human cyclin D1-CDK4 (P24385 whole entry partner): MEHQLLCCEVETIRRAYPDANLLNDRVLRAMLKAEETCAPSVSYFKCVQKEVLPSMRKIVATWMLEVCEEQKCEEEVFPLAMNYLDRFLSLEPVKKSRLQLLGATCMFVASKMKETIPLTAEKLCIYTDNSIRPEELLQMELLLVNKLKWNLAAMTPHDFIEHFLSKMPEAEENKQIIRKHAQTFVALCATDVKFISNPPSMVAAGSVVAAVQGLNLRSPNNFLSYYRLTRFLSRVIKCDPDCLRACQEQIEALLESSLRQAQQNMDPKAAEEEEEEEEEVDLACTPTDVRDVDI

[3] = molecular target: human cyclin B-CDK1 (Homo sapiens, UniProt P06493); test: FlashPlate kinase assay, cyclin B-CDK1; assay type: biochemical; details: Rb protein substrate, 1 μM ATP, 33P-ATP, 30 minutes room temperature
Sequence of human cyclin B-CDK1 (P06493 whole entry): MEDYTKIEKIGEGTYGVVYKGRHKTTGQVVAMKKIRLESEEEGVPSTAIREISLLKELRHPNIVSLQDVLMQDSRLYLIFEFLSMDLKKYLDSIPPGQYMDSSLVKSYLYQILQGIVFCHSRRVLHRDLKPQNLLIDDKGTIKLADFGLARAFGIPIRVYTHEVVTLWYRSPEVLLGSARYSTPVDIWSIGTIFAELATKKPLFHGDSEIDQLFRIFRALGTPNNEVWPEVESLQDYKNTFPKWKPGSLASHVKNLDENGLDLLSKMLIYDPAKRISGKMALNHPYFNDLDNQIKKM
Sequence of human cyclin B-CDK1 (P14635 whole entry partner): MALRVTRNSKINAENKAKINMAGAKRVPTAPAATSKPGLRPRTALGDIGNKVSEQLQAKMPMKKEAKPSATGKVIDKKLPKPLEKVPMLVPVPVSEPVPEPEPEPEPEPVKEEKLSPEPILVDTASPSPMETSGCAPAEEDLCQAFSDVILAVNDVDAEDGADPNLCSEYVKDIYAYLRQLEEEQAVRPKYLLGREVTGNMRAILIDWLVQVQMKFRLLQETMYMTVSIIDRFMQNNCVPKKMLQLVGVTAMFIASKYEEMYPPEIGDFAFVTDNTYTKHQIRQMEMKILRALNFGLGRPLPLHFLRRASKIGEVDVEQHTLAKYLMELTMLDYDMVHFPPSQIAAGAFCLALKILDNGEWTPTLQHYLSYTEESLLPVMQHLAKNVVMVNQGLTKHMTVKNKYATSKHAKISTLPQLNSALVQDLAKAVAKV

[4] = molecular target: human cyclin E-CDK2 (Homo sapiens, UniProt P24941); test: FlashPlate kinase assay, cyclin E-CDK2; assay type: biochemical; details: Rb protein substrate, 1 μM ATP, 33P-ATP, 30 minutes room temperature

Row | SMILES | IC50 [1] [nM] | IC50 [2] [nM] | IC50 [3] [nM] | IC50 [4] [nM]
1 | CCc1cccc(C(=O)c2sc(Nc3ccc(N4CCC(N(C)C)CC4)cc3)nc2N)c1 [Example 115, {4-Amino-2-[4-(4-dimethylamino-piperidin-1-yl)-phenylamino]-thiazol-5-yl}-(3-ethyl-phenyl)-methanone] | 1240 | 10 | 2800 | 1040
2 | CCc1cccc(C(=O)c2sc(Nc3ccc(N4CCC(N5CCOCC5)CC4)cc3)nc2N)c1 [Example 116, {4-Amino-2-[4-(4-morpholin-4-yl-piperidin-1-yl)-phenylamino]-thiazol-5-yl}-(3-ethyl-phenyl)-methanone] | 2550 | 15 | 5590 | 750
3 | CCc1cccc(C(=O)c2sc(Nc3ccc(N4CCC(N5CCCCC5)CC4)cc3)nc2N)c1 [Example 117, [4-Amino-2-(4-[1,4′]bipiperidinyl-1′-yl-phenylamino)-thiazol-5-yl]-(3-ethyl-phenyl)-methanone] | 1310 | 9 | 3220 | 989
4 | CCOc1cccc(C(=O)c2sc(Nc3ccc(N4CCC(N5CCCC5)CC4)cc3)nc2N)c1 [Example 118, {4-Amino-2-[4-(4-pyrrolidin-1-yl-piperidin-1-yl)-phenylamino]-thiazol-5-yl}-(3-ethoxy-phenyl)-methanone] | 4150 | 31 | 1530 | 3240
5 | Nc1nc(Nc2ccc(N3CCC(N4CCCC4)CC3)cc2)sc1C(=O)c1cccc(C2CC2)c1 [Example 119, {4-Amino-2-[4-(4-pyrrolidin-1-yl-piperidin-1-yl)-phenylamino]-thiazol-5-yl}-(3-cyclopropyl-phenyl)-methanone] | 3170 | 11 | 1530 | 3240
6 | CN(C)C1CCN(c2ccc(Nc3nc(N)c(C(=O)c4cccc(C5CC5)c4)s3)cc2)CC1 [Example 120, {4-Amino-2-[4-(4-dimethylamino-piperidin-1-yl)-phenylamino]-thiazol-5-yl}-(3-cyclopropyl-phenyl)-methanone] | 3910 | 23 | 1870 | 2580
7 | Cc1ccc(C(=O)c2sc(Nc3ccc(N4CCC(N5CCCC5)CC4)cc3)nc2N)cc1F [Example 121, {4-Amino-2-[4-(4-pyrrolidin-1-yl-piperidin-1-yl)-phenylamino]-thiazol-5-yl}-(3-fluoro-4-methyl-phenyl)-methanone] | 2160 | 11 | 700 | 1940
8 | CCc1cc(C(=O)c2sc(Nc3ccc(N4CCC(N5CCCC5)CC4)cc3)nc2N)ccc1F [Example 122, {4-Amino-2-[4-(4-pyrrolidin-1-yl-piperidin-1-yl)-phenylamino]-thiazol-5-yl}-(3-ethyl-4-fluoro-phenyl)-methanone] | 4220 | 20 | 5190 | 5310
9 | CCCc1cc(C(=O)c2sc(Nc3ccc(N4CCC(N5CCCC5)CC4)cc3)nc2N)ccc1O [Example 123, {4-Amino-2-[4-(4-pyrrolidin-1-yl-piperidin-1-yl)-phenylamino]-thiazol-5-yl}-(4-hydroxy-3-propyl-phenyl)-methanone] | 1050 | 14 | 345 | 200
10 | CCNC1CCN(c2ccc(Nc3nc(N)c(C(=O)c4cccc(F)c4)s3)cc2)C1 (centres unmarked) [Example 132, {4-Amino-2-[4-(3-ethylamino-pyrrolidin-1-yl)-phenylamino]-thiazol-5-yl}-(3-fluoro-phenyl)-methanone] | 568 | 29 | 253 | 701
11 | CCNC1CCN(c2ccc(Nc3nc(N)c(C(=O)c4ccc(OC)c(F)c4)s3)cc2)C1 (centres unmarked) [Example 133, {4-Amino-2-[4-(3-ethylamino-pyrrolidin-1-yl)-phenylamino]-thiazol-5-yl}-(3-fluoro-4-methoxy-phenyl)-methanone] | 1020 | 66 | 1860 | 3270
12 | CCNC1CCN(c2ccc(Nc3nc(N)c(C(=O)c4cccc(OC)c4)s3)cc2)C1 (centres unmarked) [Example 134, {4-Amino-2-[4-(3-ethylamino-pyrrolidin-1-yl)-phenylamino]-thiazol-5-yl}-(3-methoxy-phenyl)-methanone] | 1240 | 46 | 1330 | 4500
13 | CCNC1CCN(c2ccc(Nc3nc(N)c(C(=O)c4cccc(OC)c4)s3)cc2)CC1 [Example 135, {4-Amino-2-[4-(4-ethylamino-piperidin-1-yl)-phenylamino]-thiazol-5-yl}-(3-methoxy-phenyl)-methanone] | 3370 | 28 | 1150 | 6100
14 | CCNC1CCN(c2ccc(Nc3nc(N)c(C(=O)c4ccc(OC)c(F)c4)s3)cc2)CC1 [Example 136, {4-Amino-2-[4-(4-ethylamino-piperidin-1-yl)-phenylamino]-thiazol-5-yl}-(3-fluoro-4-methoxy-phenyl)-methanone] | 3260 | 50 | 1560 | 9430
